Like-named read-outs stand apart in the source and are kept apart here.
Assays:
[1] = molecular target: PAK4 kinase activity in whole cells (TR-293-KDG, modified HEK 293 overexpressing GEF-H1b and PAK4 KD) (Homo sapiens (Human), UniProt O96013); assay: PAK4 cellular assay: sandwich ELISA of PAK4-dependent phosphorylation of GEF-H1b in TR-293-KDG cells; type: cell-based; conditions: doxycycline-induced, 3-hour exposure, phospho-GEF-H1b ELISA
Description: A sandwich ELISA method was used to measure the PAK4 kinase activity in whole cells. The level of PAK4-dependent phosphorylation of GEF-H1b can be determined by monitoring the binding of a phosphospecific antibody to GEF-H1b. A modified HEK 293 cell line is used in the bioassay and it has been engineered to overexpress both GEF-H1b and the kinase domain (KD) of PAK4. The KD of PAK4 is inducible in this cell line by tetracycline (Trex system, Invitrogen). The name of this cell line has been designated TR-293-KDG. To establish a phosphorylation event on GEF-H1, cells are induced with doxycycline to express the PAK4 KD. […] Candidate substance effect is measured as the ability to block this phosphorylation event.
ELISA plate was prepared by pre-coating the plates with a capture antibody (α-HA-tag mouse monoclonal antibody), blocked with BSA, and washed in 0.1% tween 20 in tris-buffered saline (TBST). Tissue culture plates (precoated with poly-D-lysine) were seeded with TR-293-KDG cells. The TR-293-KDG Cells were induced to express the PAK4 KD with doxycycline overnight and subsequently & concomitantly treated with candidate substances or diluent for an additional 3-hour, continuous exposure. Cells were then lysed with a modified RIPA buffer supplemented with protease inhibitors. The fresh whole cell lysates were then added to the ELISA plate for 2-hours. Between all subsequent steps plates were washed 4 times with TBST. Detection antibody (recognizing the phospho-specific eptitope on GEF-H1b) was added for 1 hour, followed by addition of an enzyme linked goat α-rabbit secondary antibody for 45 minutes. […] EC50 values were calculated by sigmoid curve fitting using a four-parameter analysis.

[2] = molecular target: PAK4 kinase domain (PAK4 KD) (Homo sapiens (Human), UniProt O96013); assay: PAK4 kinase domain enzymatic assay (coupled PK/LDH, NADH absorbance at 340 nm); type: biochemical
Description: Cloning, expression, and purification of recombinant PAK4 Kinase domain (PAK4 KD): The cDNA coding for PAK4 was amplified from the EST clone (#12) (purchased from Research Genetics) by using PCR. […] The PCR amplified product was cloned into Topo vector (Invitrogen Inc.), and verified by DNA sequencing. PAK4 KD was then subcloned into expression plasmid pET28a(+), pET24a(+), or pGST4.5. The recombinant plasmids containing PAK4 KD was transformed into BL21(DE3) cells for recombinant protein expression. […] The cells were then harvested and lyzed for protein purification. Ni-NTA column (pET28a(+), pET24a(+)) and glutathione column (pGST4.5) were used for the purification.
PAK4 kinase domain enzymatic assay conditions: the enzymatic activity of PAK4 KD was measured by its ability to catalyze the transfer of a phosphate residue from a nucleoside triphosphate to an amino acid side chain of a commercially available peptide (amino acid sequence […]). The conversion of ATP to ADP accompanies the catalytic reaction. The PAK4 KD catalyzed production of ADP from ATP was coupled to the oxidation of NADH through the activities of pyruvate kinase (PK) and lactate dehydrogenase (LDH). The conversion of NADH to NAD^+ is monitored by the decrease in absorbance at 340 nm (e340=6.22 cm^−1mM^−1) using a Molecular Devices SPECTRAMAX 190 in conjunction with the Biomec FX. Typical reaction solutions contain 2 mM phosphoenolpyruvate, 0.35 mM NADH, 10 mM MgCl2, 1 mM DTT, 0.4 mM peptide ([…]) 0.04 mM ATP, 1 units/mL PK, 1 units/mL LDH, 0.01% Tween 20 in 50 mM HEPES, pH 7.5. […] The PAK KD Ki of each compound of the invention (the inhibitor) was calculated based on multiple of Percent Inhibition numbers of the inhibitor at different inhibitor concentrations. The peptide (amino sequence […]) was purchased from American Peptide Company. NADH, MgCl2, HEPES, DTT, ATP and PK/LDH were purchased from Sigma. Tween 20 was purchased from Calbiochem.

[3] = PAK4 kinase domain, 25 nM PAK4 KD, 0.04 mM ATP, pH 7.5

PAK4 kinase domain (PAK4 KD), sequence (O96013 321-572): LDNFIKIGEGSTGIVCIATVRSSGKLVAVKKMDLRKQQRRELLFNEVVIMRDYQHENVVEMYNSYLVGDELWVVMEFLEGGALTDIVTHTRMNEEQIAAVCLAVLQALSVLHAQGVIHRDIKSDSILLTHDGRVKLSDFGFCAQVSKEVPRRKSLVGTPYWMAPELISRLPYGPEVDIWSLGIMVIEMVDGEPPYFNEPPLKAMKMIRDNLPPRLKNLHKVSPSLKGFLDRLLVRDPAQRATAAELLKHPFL
PAK4 kinase activity in whole cells (TR-293-KDG, modified HEK 293 overexpressing GEF-H1b and PAK4 KD), sequence (O96013 321-572): as above

EC50 [1] | Ki [2, 3] | Ki [2] | SMILES
> 4000 nM | 450 nM |  | COc1ncc(F)c(Nc2n[nH]c3c2CN(C(=O)N[C@@H]2C[C@H]2c2ccccc2)C3(C)C)n1 (relative stereo) [Example 43, 3-[(5-fluoro-2-methoxypyrimidin-4-yl)amino]-6,6-dimethyl-N-[trans-2-phenylcyclopropyl]-4,6-dihydropyrrolo[3,4-c]pyrazole-5(1H)-carboxamide]
> 4000 nM | 230 nM |  | Cc1ncc(F)c(Nc2n[nH]c3c2CN(C(=O)N[C@@H]2C[C@H]2c2ccccc2)C3(C)C)n1 (relative stereo) [Example 44, 3-[(5-fluoro-2-methylpyrimidin-4-yl)amino]-6,6-dimethyl-N-[trans-2-phenylcyclopropyl]-4,6-dihydropyrrolo[3,4-c]pyrazole-5(1H)-carboxamide]
32 nM | 25 nM |  | CC1(C)c2[nH]nc(Nc3nc(C(F)(F)F)nc4ccsc34)c2CN1C(=O)N[C@@H]1C[C@H]1c1ccccc1 (relative stereo) [Example 45, 6,6-dimethyl-N-[trans-2-phenylcyclopropyl]-3-{[2-(trifluoromethyl)thieno[3,2-d]pyrimidin-4-yl]amino}-4,6-dihydropyrrolo[3,4-c]pyrazole-5(1H)-carboxamide]
332 nM | 160 nM |  | Cc1csc2c(Nc3n[nH]c4c3CN(C(=O)N[C@H]3C[C@@H]3c3ccccc3)C4(C)C)ncnc12 (relative stereo) [Example 49, 6,6-dimethyl-3-[(7-methylthieno[3,2-d]pyrimidin-4-yl)amino]-N-[trans-2-phenylcyclopropyl]-4,6-dihydropyrrolo[3,4-c]pyrazole-5(1H)-carboxamide]
1740 nM | 67 nM |  | CC1(C)c2[nH]nc(Nc3ncnc4ccoc34)c2CN1C(=O)N[C@H]1C[C@@H]1c1ccccc1 (relative stereo) [Example 53, 3-(furo[3,2-d]pyrimidin-4-ylamino)-6,6-dimethyl-N-(trans-2-phenylcyclopropyl)-4,6-dihydropyrrolo[3,4-c]pyrazole-5(1H)-carboxamide]
455 nM | 34 nM |  | Cc1nc(Nc2n[nH]c3c2CN(C(=O)N[C@@H]2C[C@H]2c2ccccc2)C3(C)C)c2ccccc2n1 (relative stereo) [Example 84, 3-[(2-methylquinazolin-4-yl)amino]-6,6-dimethyl-N-[trans-2-phenylcyclopropyl]-4,6-dihydropyrrolo[3,4-c]pyrazole-5(1H)-carboxamide]
1200 nM |  | 90 nM | COc1nc(Nc2n[nH]c3c2CN(C(=O)NC2CC2c2ccccc2)C3(C)C)nc(N2CCC[C@H]2C#N)n1 (stereo in doubt) [Example 20, 3-({4-[(2S)-2-cyanopyrrolidin-1-yl]-6-methoxy-1,3,5-triazin-2-yl}amino)-6,6-dimethyl-N-[trans-2-phenylcyclopropyl]-4,6-dihydropyrrolo[3,4-c]pyrazole-5(1H)-carboxamide]
16 nM | 11 nM |  | CN1CCN(C(=O)N2Cc3c(Nc4nc(Cl)nc5ccsc45)n[nH]c3C2(C)C)[C@@H](Cc2ccccc2)C1 [Example 3, N-(5-{[(2S)-2-benzyl-4-methylpiperazin-1-yl]carbonyl}-6,6-dimethyl-1,4,5,6 tetrahydropyrrolo[3,4-c]pyrazol-3-yl)-2-chlorothieno[3,2-d]pyrimidin-4-amine]
87 nM | 220 nM |  | CN(C)C[C@@H](NC(=O)N1Cc2c(Nc3ncnc4ccsc34)n[nH]c2C1(C)C)c1ccccc1 [Example 5, N-[(1S)-2-(dimethylamino)-1-phenylethyl]-6,6-dimethyl-3-(thieno[3,2-d]pyrimidin-4-ylamino)-4,6-dihydropyrrolo[3,4-c]pyrazole-5(1H)-carboxamide]
0.94 nM | 2.8 nM |  | CN(C)C[C@@H](NC(=O)N1Cc2c(Nc3nc(Cl)nc4ccsc34)n[nH]c2C1(C)C)c1ccccc1 [Example 6, 3-[(2-chlorothieno[3,2-d]pyrimidin-4-yl)amino]-N-[(1S)-2-(dimethylamino)-1-phenylethyl]-6,6-dimethyl-4,6-dihydropyrrolo[3,4-c]pyrazole-5(1H)-carboxamide]
78 nM | 38 nM |  | CC1(C)c2[nH]nc(Nc3nc(Cl)nc4ccccc34)c2CN1C(=O)NC1CC1c1ccccc1 (stereo not drawn) [Example 12, 3-[(2-chloroquinazolin-4-yl)amino]-6,6-dimethyl-N-[(trans-2-phenylcyclopropyl]-4,6-dihydropyrrolo[3,4-c]pyrazole-5(1H)-carboxamide]
1270 nM | 76 nM |  | COc1nc(Nc2n[nH]c3c2CN(C(=O)NC2C[C@@H]2c2ccccc2)C3(C)C)nc(N2CCC[C@H]2CO)n1 (stereo partly drawn) [Example 16, 3-({4-[(2S)-2-(hydroxymethyl)pyrrolidin-1-yl]-6-methoxy-1,3,5-triazin-2-yl}amino)-6,6-dimethyl-N-[trans-2-phenylcyclopropyl]-4,6-dihydropyrrolo[3,4-c]pyrazole-5(1H)-carboxamide]
> 4000 nM | 140 nM |  | CN(C)c1nc(Nc2n[nH]c3c2CN(C(=O)NC2C[C@@H]2c2ccccc2)C3(C)C)nc(N2CCC[C@H]2CO)n1 (stereo partly drawn) [Example 23, 3-({4-(dimethylamino)-6-[(2S)-2-(hydroxymethyl)pyrrolidin-1-yl]-1,3,5-triazin-2-yl}amino)-6,6-dimethyl-N-[trans-2-phenylcyclopropyl]-4,6-dihydropyrrolo[3,4-c]pyrazole-5(1H)-carboxamide]
340 nM | 16 nM |  | CC1(C)c2[nH]nc(Nc3ncnc4sccc34)c2CN1C(=O)N[C@@H]1C[C@H]1c1ccccc1 [Example 50, 6,6-dimethyl-N-[(1R,2S)-2-phenylcyclopropyl]-3-(thieno[2,3-d]pyrimidin-4-ylamino)-4,6-dihydropyrrolo[3,4-c]pyrazole-5(1H)-carboxamide]
31 nM | 18 nM |  | CC1(C)c2[nH]nc(Nc3ncnc4ccsc34)c2CN1C(=O)N[C@@H]1C[C@H]1c1ccccc1 [Example 51, 6,6-dimethyl-N-[(1R,2S)-2-phenylcyclopropyl]-3-(thieno[3,2-d]pyrimidin-4-ylamino)-4,6-dihydropyrrolo[3,4-c]pyrazole-5(1H)-carboxamide]
570 nM | 240 nM |  | Cc1ncnc(Nc2n[nH]c3c2CN(C(=O)N[C@H](CN(C)C)c2ccccc2)C3(C)C)c1F [Example 56, N-[(1S)-2-(dimethylamino)-1-phenylethyl]-3-[(5-fluoro-6-methylpyrimidin-4-yl)amino]-6,6-dimethyl-4,6-dihydropyrrolo[3,4-c]pyrazole-5(1H)-carboxamide]
2.5 nM |  | 14 nM | Cc1nc(Nc2n[nH]c3c2CN(C(=O)N[C@H](CN(C)C)c2ccccc2)C3(C)C)c2ccsc2n1 [Example 58, N-[(1S)-2-(dimethylamino)-1-phenylethyl]-6,6-dimethyl-3-[(2-methylthieno[2,3-d]pyrimidin-4-yl)amino]-4,6-dihydropyrrolo[3,4-c]pyrazole-5(1H)-carboxamide]

SMILES | EC50 [1] | Ki [2, 3] | Ki [2]
Cc1nc(Nc2n[nH]c3c2CN(C(=O)N[C@@H]2C[C@H]2c2ccccc2)C3(C)C)c2sccc2n1 [Example 32, 6,6-Dimethyl-3-[(2-methylthieno[3,2-d]pyrimidin-4-yl)amino]-N-[(1R,2S)-2-phenylcyclopropyl]-4,6-dihydropyrrolo[3,4-c]pyrazole-5(1H)-carboxamide] | 19 nM | 3.5 nM | 

From patent publication US8530652B2, “Pyrrolopyrazoles, potent kinase inhibitors” (Agouron Pharmaceuticals, Inc., priority 2005, dated 2013)
